Laboratory results published in patent US20260242419A1, “A CYCLIC PEPTIDE FOR TRAPPING INTERLEUKIN-1 BETA” (Merck Sharp & Dohme LLC, priority 2023, published 2026).
Starred links: 1 amine or outer side, 2 acyl side, 3 side chain; linkers in the order of their positions; H or OH if unused. Non-standard residues stand in square brackets, D forms with d. Residues, ends and D or L forms follow the SMILES beside them. Phe(4-(5-CO2H-2-pyrimidyl)) = N[C@@H](Cc1ccc(-c2ncc(C(=O)O)cn2)cc1)C(=O)O; Phe(4-(4-Ac-piperazinyl)) = CC(=O)N1CCN(c2ccc(C[C@H](N)C(=O)O)cc2)CC1; Trp(4-Cl)(βS-Me) = C[C@@H](c1c[nH]c2cccc(Cl)c12)[C@H](N)C(=O)O; dPro(4R-(4-pyridylmethyl)) = O=C(O)[C@H]1C[C@@H](Cc2ccncc2)CN1; Trp(βS-Me,4-F) = C[C@@H](c1c[nH]c2cccc(F)c12)[C@H](N)C(=O)O; Bip(4'-COOH) = N[C@@H](Cc1ccc(-c2ccc(C(=O)O)cc2)cc1)C(=O)O; Phe(2-Cl,4-COOH) = N[C@@H](Cc1ccc(C(=O)O)cc1Cl)C(=O)O; 1Nal(3S-Me) = C[C@@H](c1cccc2ccccc12)[C@H](N)C(=O)O; X13 = O=C(O)c1ccc(C[C@H](N[*:1])C(=O)[*:2])cc1Cl; Ala(pyrimidin-5-yl) = N[C@@H](Cc1cncnc1)C(=O)O; Phe(4-COOH) = N[C@@H](Cc1ccc(C(=O)O)cc1)C(=O)O; Pro(cis-4-F) = O=C(O)[C@@H]1C[C@H](F)CN1; Ala(4-THP) = N[C@@H](CC1CCOCC1)C(=O)O; AEF = NCCOc1ccc(C[C@H](N)C(=O)O)cc1; d(αMeD) = C[C@@](N)(CC(=O)O)C(=O)O; 4Pal = N[C@@H](Cc1ccncc1)C(=O)O; aThr = C[C@H](O)[C@H](N)C(=O)O; d(αMeS) = C[C@@](N)(CO)C(=O)O; Dab = NCC[C@H](N)C(=O)O; Aib = CC(C)(N)C(=O)O

Molecular target: T1, IL-1β (Homo sapiens, UniProt P01584)
T1 construct: purchased BioLegend 579404
T1 sequence (P01584 117-269): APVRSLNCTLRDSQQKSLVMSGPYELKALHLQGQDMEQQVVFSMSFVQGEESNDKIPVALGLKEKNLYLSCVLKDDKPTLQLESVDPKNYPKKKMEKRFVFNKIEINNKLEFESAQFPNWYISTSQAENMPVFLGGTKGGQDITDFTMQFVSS
Test: IL-6 assay in MRC5 cells: inhibition of IL-1β induced IL-6 secretion (AlphaLISA)
Type: cell-based
Conditions: inhibition of IL-1β induced IL-6 secretion in MRC5 cells; read-out: MRC5 IC50
Outline: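 Compound was pre-incubated 1 h at ambient temperature with recombinant human IL-1β at 2λ EC80 before adding human lung fibroblast MRC5 cells (3000/well) in EMEM with 0.025% BSA. After overnight culture at 37 °C, 5% CO2, secreted IL-6 in conditioned medium was measured by AlphaLISA; IC50 from 4-parameter logistic fits.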

IC50 | Compound
0.023 nM | CC(=O)NCCOc1ccc(C[C@@H]2NC(=O)[C@H]3C[C@@H](Cc4ccncc4)CN3C(=O)CNC(=O)[C@H](CCN)NC(=O)[C@H](CCC(N)=O)NC(=O)[C@H](CC3CCOCC3)NC(=O)[C@@](C)(CC(=O)O)NC(=O)[C@H](Cc3c[nH]c4ccccc34)NC(=O)[C@H](CO)NC(=O)C(C)(C)NC(=O)[C@H]([C@@H](C)c3c[nH]c4cccc(Cl)c34)NC(=O)[C@@H]3C[C@H](F)CN3C(=O)CNC(=O)[C@H](Cc3ccc(C(=O)O)cc3)NC(=O)[C@H](Cc3ccncc3)NC2=O)cc1 [Example 362] (cyclo([AEF](Ac)[4Pal][Phe(4-COOH)]G[Pro(cis-4-F)][Trp(4-Cl)(βS-Me)][Aib]SW[d(αMeD)][Ala(4-THP)]Q[Dab]G[dPro(4R-(4-pyridylmethyl))]))
0.021 nM | CC(=O)NCCOc1ccc(C[C@@H]2NC(=O)[C@H]3C[C@@H](Cc4ccncc4)CN3C(=O)CNC(=O)[C@H](CCN)NC(=O)[C@H](CCC(N)=O)NC(=O)[C@H](CC3CCOCC3)NC(=O)[C@@](C)(CC(=O)O)NC(=O)[C@H](Cc3c[nH]c4ccccc34)NC(=O)[C@H](CO)NC(=O)C(C)(C)NC(=O)[C@H]([C@@H](C)c3cccc4ccccc34)NC(=O)[C@@H]3C[C@H](F)CN3C(=O)CNC(=O)[C@H](Cc3ccc(C(=O)O)cc3Cl)NC(=O)[C@H](Cc3ccncc3)NC2=O)cc1 [Example 363] (cyclo([AEF](Ac)[4Pal][Phe(2-Cl,4-COOH)]G[Pro(cis-4-F)][1Nal(3S-Me)][Aib]SW[d(αMeD)][Ala(4-THP)]Q[Dab]G[dPro(4R-(4-pyridylmethyl))]))
0.015 nM | C[C@@H](c1c[nH]c2cccc(F)c12)[C@@H]1NC(=O)[C@@H]2C[C@H](F)CN2C(=O)CNC(=O)[C@H](Cc2ccc(C(=O)O)cc2)NC(=O)[C@H](Cc2ccncc2)NC(=O)[C@H](Cc2ccc(-c3ccc(C(=O)O)cc3)cc2)NC(=O)[C@H]2C[C@@H](Cc3ccncc3)CN2C(=O)CNC(=O)[C@H](CCN)NC(=O)[C@H](CCC(N)=O)NC(=O)[C@H](CC2CCOCC2)NC(=O)[C@@](C)(CO)NC(=O)[C@H](Cc2c[nH]c3ccccc23)NC(=O)[C@H](CO)NC(=O)C(C)(C)NC1=O [Example 364] (cyclo([Bip(4'-COOH)][4Pal][Phe(4-COOH)]G[Pro(cis-4-F)][Trp(βS-Me,4-F)][Aib]SW[d(αMeS)][Ala(4-THP)]Q[Dab]G[dPro(4R-(4-pyridylmethyl))]))
0.023 nM | CC(=O)N1CCN(c2ccc(C[C@@H]3NC(=O)[C@H]4C[C@@H](Cc5ccncc5)CN4C(=O)CNC(=O)[C@H](CCN)NC(=O)[C@H](CCC(N)=O)NC(=O)[C@H](Cc4cncnc4)NC(=O)C(C)(C)NC(=O)[C@H](Cc4c[nH]c5ccccc45)NC(=O)[C@H](CO)NC(=O)C(C)(C)NC(=O)[C@H]([C@@H](C)c4c[nH]c5cccc(F)c45)NC(=O)[C@@H]4C[C@H](F)CN4C(=O)CNC(=O)[C@H](Cc4ccc(C(=O)O)cc4Cl)NC(=O)[C@H](Cc4ccncc4)NC3=O)cc2)CC1 [Example 365] (cyclo([Phe(4-(4-Ac-piperazinyl))][4Pal][Phe(2-Cl,4-COOH)]G[Pro(cis-4-F)][Trp(βS-Me,4-F)][Aib]SW[Aib][Ala(pyrimidin-5-yl)]Q[Dab]G[dPro(4R-(4-pyridylmethyl))]))
0.021 nM | CC(=O)N1CCN(c2ccc(C[C@@H]3NC(=O)[C@H]4C[C@@H](Cc5ccncc5)CN4C(=O)CNC(=O)[C@H](CCN)NC(=O)[C@H](CCC(N)=O)NC(=O)[C@H](Cc4cncnc4)NC(=O)C(C)(C)NC(=O)[C@H](Cc4c[nH]c5ccccc45)NC(=O)[C@H](CO)NC(=O)C(C)(C)NC(=O)[C@H]([C@@H](C)c4c[nH]c5cccc(F)c45)NC(=O)[C@@H]4C[C@H](F)CN4C(=O)CNC(=O)[C@H](Cc4ccc(C(=O)O)cc4)NC(=O)[C@H](Cc4ccncc4)NC3=O)cc2)CC1 [Example 366] (cyclo([Phe(4-(4-Ac-piperazinyl))][4Pal][Phe(4-COOH)]G[Pro(cis-4-F)][Trp(βS-Me,4-F)][Aib]SW[Aib][Ala(pyrimidin-5-yl)]Q[Dab]G[dPro(4R-(4-pyridylmethyl))]))

Continued, compound first:

Compound | IC50
C[C@H](O)[C@@H]1NC(=O)[C@@](C)(CC(=O)O)NC(=O)[C@H](Cc2c[nH]c3ccccc23)NC(=O)[C@H](CO)NC(=O)C(C)(C)NC(=O)[C@H]([C@@H](C)c2cccc3ccccc23)NC(=O)[C@@H]2C[C@H](F)CN2C(=O)CNC(=O)[C@H](Cc2ccc(C(=O)O)cc2Cl)NC(=O)[C@H](Cc2ccncc2)NC(=O)[C@H](Cc2ccc(-c3ccc(C(=O)O)cc3)cc2)NC(=O)[C@H]2C[C@@H](Cc3ccncc3)CN2C(=O)CNC(=O)[C@H](CCN)NC(=O)[C@H](CCC(N)=O)NC1=O [Example 354] (cyclo([Bip(4'-COOH)][4Pal][Phe(2-Cl,4-COOH)]G[Pro(cis-4-F)][1Nal(3S-Me)][Aib]SW[d(αMeD)][aThr]Q[Dab]G[dPro(4R-(4-pyridylmethyl))])) | 0.014 nM
C[C@H](O)[C@@H]1NC(=O)[C@@](C)(CC(=O)O)NC(=O)[C@H](Cc2c[nH]c3ccccc23)NC(=O)[C@H](CO)NC(=O)C(C)(C)NC(=O)[C@H]([C@@H](C)c2c[nH]c3cccc(Cl)c23)NC(=O)[C@@H]2C[C@H](F)CN2C(=O)CNC(=O)[C@H](Cc2ccc(C(=O)O)cc2Cl)NC(=O)[C@H](Cc2ccncc2)NC(=O)[C@H](Cc2ccc(-c3ccc(C(=O)O)cc3)cc2)NC(=O)[C@H]2C[C@@H](Cc3ccncc3)CN2C(=O)CNC(=O)[C@H](CCN)NC(=O)[C@H](CCC(N)=O)NC1=O [Example 355] (cyclo([Bip(4'-COOH)][4Pal][Phe(2-Cl,4-COOH)]G[Pro(cis-4-F)][Trp(4-Cl)(βS-Me)][Aib]SW[d(αMeD)][aThr]Q[Dab]G[dPro(4R-(4-pyridylmethyl))])) | 0.013 nM
C[C@H](O)[C@@H]1NC(=O)[C@@](C)(CC(=O)O)NC(=O)[C@H](Cc2c[nH]c3ccccc23)NC(=O)[C@H](CO)NC(=O)C(C)(C)NC(=O)[C@H]([C@@H](C)c2c[nH]c3cccc(F)c23)NC(=O)[C@@H]2C[C@H](F)CN2C(=O)CNC(=O)[C@H](Cc2ccc(C(=O)O)cc2Cl)NC(=O)[C@H](Cc2ccncc2)NC(=O)[C@H](Cc2ccc(-c3ccc(C(=O)O)cc3)cc2)NC(=O)[C@H]2C[C@@H](Cc3ccncc3)CN2C(=O)CNC(=O)[C@H](CCN)NC(=O)[C@H](CCC(N)=O)NC1=O [Example 356] (cyclo([Bip(4'-COOH)][4Pal][Phe(2-Cl,4-COOH)]G[Pro(cis-4-F)][Trp(βS-Me,4-F)][Aib]SW[d(αMeD)][aThr]Q[Dab]G[dPro(4R-(4-pyridylmethyl))])) | 0.011 nM
C[C@H](O)[C@@H]1NC(=O)[C@@](C)(CC(=O)O)NC(=O)[C@H](Cc2c[nH]c3ccccc23)NC(=O)[C@H](CO)NC(=O)C(C)(C)NC(=O)[C@H]([C@@H](C)c2cccc3ccccc23)NC(=O)[C@@H]2C[C@H](F)CN2C(=O)CNC(=O)[C@H](Cc2ccc(C(=O)O)cc2)NC(=O)[C@H](Cc2ccncc2)NC(=O)[C@H](Cc2ccc(-c3ccc(C(=O)O)cc3)cc2)NC(=O)[C@H]2C[C@@H](Cc3ccncc3)CN2C(=O)CNC(=O)[C@H](CCN)NC(=O)[C@H](CCC(N)=O)NC1=O [Example 357] (cyclo([Bip(4'-COOH)][4Pal][Phe(4-COOH)]G[Pro(cis-4-F)][1Nal(3S-Me)][Aib]SW[d(αMeD)][aThr]Q[Dab]G[dPro(4R-(4-pyridylmethyl))])) | 0.017 nM
C[C@H](O)[C@@H]1NC(=O)[C@@](C)(CC(=O)O)NC(=O)[C@H](Cc2c[nH]c3ccccc23)NC(=O)[C@H](CO)NC(=O)C(C)(C)NC(=O)[C@H]([C@@H](C)c2c[nH]c3cccc(Cl)c23)NC(=O)[C@@H]2C[C@H](F)CN2C(=O)CNC(=O)[C@H](Cc2ccc(C(=O)O)cc2)NC(=O)[C@H](Cc2ccncc2)NC(=O)[C@H](Cc2ccc(-c3ccc(C(=O)O)cc3)cc2)NC(=O)[C@H]2C[C@@H](Cc3ccncc3)CN2C(=O)CNC(=O)[C@H](CCN)NC(=O)[C@H](CCC(N)=O)NC1=O [Example 358] (cyclo([Bip(4'-COOH)][4Pal][Phe(4-COOH)]G[Pro(cis-4-F)][Trp(4-Cl)(βS-Me)][Aib]SW[d(αMeD)][aThr]Q[Dab]G[dPro(4R-(4-pyridylmethyl))])) | 0.013 nM
C[C@H](O)[C@@H]1NC(=O)[C@@](C)(CC(=O)O)NC(=O)[C@H](Cc2c[nH]c3ccccc23)NC(=O)[C@H](CO)NC(=O)C(C)(C)NC(=O)[C@H]([C@@H](C)c2c[nH]c3cccc(F)c23)NC(=O)[C@@H]2C[C@H](F)CN2C(=O)CNC(=O)[C@H](Cc2ccc(C(=O)O)cc2)NC(=O)[C@H](Cc2ccncc2)NC(=O)[C@H](Cc2ccc(-c3ccc(C(=O)O)cc3)cc2)NC(=O)[C@H]2C[C@@H](Cc3ccncc3)CN2C(=O)CNC(=O)[C@H](CCN)NC(=O)[C@H](CCC(N)=O)NC1=O [Example 359] (cyclo([Bip(4'-COOH)][4Pal][Phe(4-COOH)]G[Pro(cis-4-F)][Trp(βS-Me,4-F)][Aib]SW[d(αMeD)][aThr]Q[Dab]G[dPro(4R-(4-pyridylmethyl))])) | 0.011 nM
C[C@@H](c1cccc2ccccc12)[C@@H]1NC(=O)[C@@H]2C[C@H](F)CN2C(=O)CNC(=O)[C@H](Cc2ccc(C(=O)O)cc2Cl)NC(=O)[C@H](Cc2ccncc2)NC(=O)[C@H](Cc2ccc(-c3ncc(C(=O)O)cn3)cc2)NC(=O)[C@H]2C[C@@H](Cc3ccncc3)CN2C(=O)CNC(=O)[C@H](CCN)NC(=O)[C@H](CCC(N)=O)NC(=O)[C@H](CC2CCOCC2)NC(=O)[C@@](C)(CC(=O)O)NC(=O)[C@H](Cc2c[nH]c3ccccc23)NC(=O)[C@H](CO)NC(=O)C(C)(C)NC1=O [Example 360] (cyclo([Phe(4-(5-CO2H-2-pyrimidyl))][4Pal][Phe(2-Cl,4-COOH)]G[Pro(cis-4-F)][1Nal(3S-Me)][Aib]SW[d(αMeD)][Ala(4-THP)]Q[Dab]G[dPro(4R-(4-pyridylmethyl))])) | 0.019 nM
C[C@@H](c1c[nH]c2cccc(F)c12)[C@@H]1NC(=O)[C@@H]2C[C@H](F)CN2C(=O)CNC(=O)[C@H](Cc2ccc(C(=O)O)c(Cl)c2)NC(=O)[C@H](Cc2ccncc2)NC(=O)[C@H](Cc2ccc(-c3ncc(C(=O)O)cn3)cc2)NC(=O)[C@H]2C[C@@H](Cc3ccncc3)CN2C(=O)CNC(=O)[C@H](CCN)NC(=O)[C@H](CCC(N)=O)NC(=O)[C@H](CC2CCOCC2)NC(=O)[C@@](C)(CC(=O)O)NC(=O)[C@H](Cc2c[nH]c3ccccc23)NC(=O)[C@H](CO)NC(=O)C(C)(C)NC1=O [Example 361] (cyclo([Phe(4-(5-CO2H-2-pyrimidyl))][4Pal][X13]G[Pro(cis-4-F)][Trp(βS-Me,4-F)][Aib]SW[d(αMeD)][Ala(4-THP)]Q[Dab]G[dPro(4R-(4-pyridylmethyl))])) | 0.022 nM
